The Kd is the equilibrium constant for the complex coming apart. Read a low Kd as tighter binding. A word on the kon: it is the rate constant with which the complex forms.

The target in this experiment is T1, Escherichia coli SC (^EcSC) (Escherichia coli, UniProt P0A988).
T1 construct: His tag (inferred from the pET15b vector and Ni-NTA purification) (N); made in house; host or cells: E. coli
The experiment can be described thus: biochemical. Conditions: for ΔG (kcal/mol) / Kd: ITC at 298.15 K (25° C.); for Kd: Kd (nM). In kind it is binding. The procedure:
The procedure has been described previously (Wolff, P.; Oliéric, V.; Briand, J. P.; Chaloin, O.; Dejaegere, A.; Dumas, P.; Ennifar, E.; Guichard, G.; Wagner, J.; Burnouf, D. Y., Structure-Based Design of Short Peptide Ligands Binding onto the E. coli Processivity Ring. J. Med. Chem. 2011, 54 (13), 4627-4637). Briefly, E.coli cells were transformed with plasmids pET15b containing the dnaN gene from E. coli and were grown in LB at 37° C. to OD 0.5, then induced by IPTG (0.1 mM) at 28° C. overnight. dnaN proteins fractions were first enriched on a Ni-NTA column, eluted with a histidine step (300 mM) and further purified on a Source Q column in buffer containing 20 mM Tris HCI pH 7.5, 0.5 mM EDTA and 10% (v/v) glycerol, using a gradient from 0 to 0.5 M NaCl. After a final ultracentrifugation (45 K, 1 h, 20° C.), soluble proteins were concentrated on a Centricon 30 K (Millipore) in the same buffer and stored at 4° C. in 2 M ammonium sulfate. Buffer exchange was performed on Centrikon 10 K at 4° C. before use and protein quality was assessed by DLS.
ITC experiments were performed using an iTC200 or a PEAQ-ITC instrument (Microcal Malvern Panalytical). Peptides (300 or 600 µM) were titrated at 25° C. by sequential injections (usually 2 µl each) into an SC solution (30 or 60 µM). Data were corrected for heat of injection by subtracting the signal of the titration of peptides into proteiN-free buffer solution (Hepes 10 mM pH 7.4, NaCl 0.15 M, EDTA 3 mM). Each titration was performed at least twice. Analyses of experimental data were performed following a classical treatment with the AFFINImeter software (https://www.affinimeter.com; S4S, Santiago de Compostela, Spain). In addition, kinetic information was obtained in some cases with kinITC as implemented in the software AFFINImeter.
All newly synthesized peptides were tested for their interaction with ^EcSC by ITC at 25° C. As a general rule, all thermodynamic profiles reveal an exothermic interaction, and a non-favorable entropic component. The resulting negative Gibb’s free energies characterize a spontaneous interaction. The analysis of raw data by the Affinimeter® software also gave access to kinetics rate constant of the interaction.

Where two headings read alike, the source gives them in different places. Numbered stars: 1 amine (or outer) side, 2 acyl side, 3 side chain; on linkers, the order of the positions; unused ones are H or OH. Square brackets hold non-standard residues; d marks the D form. Peptide text beside a SMILES is read from it. * marks the point of attachment. ACHC(1S,2S) = O=C([C@H]1CCCC[C@@H]1N[*:1])[*:2]; Phe(3,4-Cl2) = N[C@@H](Cc1ccc(Cl)c(Cl)c1)C(=O)O; X5 = O=C([C@@H]1CC(O)CN1[*:1])[*:2]; NH(4-MeO-phenyl) = COc1ccc(N*)cc1; tBuAla = CC(C)(C)C[C@H](N)C(=O)O; Cha = N[C@@H](CC1CCCCC1)C(=O)O; NMeD = CN[C@@H](CC(=O)O)C(=O)O; Pip = O=C(O)[C@@H]1CCCCN1; CO = O=C([*:1])[*:2]; Sar = CNCC(=O)O

T1 sequence (P0A988 whole entry): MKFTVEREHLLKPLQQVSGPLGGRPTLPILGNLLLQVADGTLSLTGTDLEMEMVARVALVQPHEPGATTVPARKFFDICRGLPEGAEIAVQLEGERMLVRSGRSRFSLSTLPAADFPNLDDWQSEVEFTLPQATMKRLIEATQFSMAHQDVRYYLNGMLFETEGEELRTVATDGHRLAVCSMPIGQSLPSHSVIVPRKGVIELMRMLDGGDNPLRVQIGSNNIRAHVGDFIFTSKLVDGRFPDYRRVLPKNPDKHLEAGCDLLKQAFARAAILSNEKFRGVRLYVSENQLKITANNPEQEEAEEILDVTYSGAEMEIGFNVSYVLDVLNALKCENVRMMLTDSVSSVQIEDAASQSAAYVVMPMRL

With `CC(=O)N[C@@H](CCC(N)=O)C(=O)N[C@@H](CC1CCCCC1)C(=O)N[C@@H](CC(=O)O)C(=O)N[C@@H](CC(C)C)C(=O)NCC(=O)N[C@@H](CC(C)C)C(=O)O` [P27] (Ac-Q[Cha]DLGL-OH), the “ΔG (kcal/mol)” value was -8.4 (± 0.1) kcal/mol and the affinity, expressed as Kd, was 682 nM. Further, where the note is “read-out: kon (M^-1.s^-1)”, the kon is 26000 M⁻¹ s⁻¹.
Taken in the same sequence, the figures for `CC(=O)N[C@@H](CCC(N)=O)C(=O)N[C@@H](CC1CCCCC1)C(=O)N[C@@H](CC(=O)O)C(=O)N[C@@H](CC(C)C)C(=O)NCC(=O)N[C@@H](CC(C)(C)C)C(=O)O` [P28] (Ac-Q[Cha]DLG[tBuAla]-OH) were -7.60 (± 0.06) kcal/mol, 2690 nM and 11000 M⁻¹ s⁻¹.
Consider `CC(=O)N[C@@H](CCC(N)=O)C(=O)N[C@@H](CC1CCCCC1)C(=O)N[C@@H](CC(=O)O)C(=O)N[C@@H](CC(C)C)C(=O)NCC(=O)N[C@@H](Cc1ccccc1)C(=O)O` [P29] (Ac-Q[Cha]DLGF-OH), for which the “ΔG (kcal/mol)” value is -8.9 (± 0.1) kcal/mol and binding was put at a Kd of 313 nM. In addition, the kon (read-out: kon (M^-1.s^-1)) turned out to be 32000 M⁻¹ s⁻¹.
As for `CC(=O)N[C@@H](CCC(N)=O)C(=O)N[C@@H](CC1CCCCC1)C(=O)N[C@@H](CC(=O)O)C(=O)N[C@@H](CC(C)C)C(=O)N(C)CC(=O)N[C@@H](CC(C)C)C(=O)O` [P30] (Ac-Q[Cha]DL[Sar]L-OH), the “ΔG (kcal/mol)” value is -8.5 (± 0.2) kcal/mol and the Kd is 583 nM. Further, the kon (read-out: kon (M^-1.s^-1)) came out at 40000 M⁻¹ s⁻¹.
In the case of `CC(=O)N[C@@H](CCC(N)=O)C(=O)N[C@@H](CC1CCCCC1)C(=O)N[C@@H](CC(=O)O)C(=O)N[C@@H](CC(C)C)C(=O)N[C@H]1CCCC[C@@H]1C(=O)N[C@@H](CC(C)C)C(=O)O` [P31] (Ac-Q[Cha]DL[ACHC(1S,2S)]L-OH), the “ΔG (kcal/mol)” value is -7.4 (± 0.2) kcal/mol and the Kd stood at 4070 nM. Besides, the kon (read-out: kon (M^-1.s^-1)) amounted to 7400 M⁻¹ s⁻¹.
Take `CC(=O)N[C@@H](CCC(N)=O)C(=O)N[C@@H](CC1CCCCC1)C(=O)N[C@@H](CC(=O)O)C(=O)N[C@@H](CC(C)C)C(=O)N1CCC[C@H]1C(=O)N[C@@H](CC(C)C)C(=O)O` [P32] (Ac-Q[Cha]DLPL-OH): the “ΔG (kcal/mol)” value is -9.2 (± 0.2) kcal/mol and the Kd is 182 nM. For the same molecule, the “fold lower Kd / affinity enhancement in comparison to peptide P27” value (compared to P27) came out at 4 fold. In addition, for the setting “read-out: kon (M^-1.s^-1)”, the kon is 57000 M⁻¹ s⁻¹.
For the molecule `CC(=O)N[C@@H](CCC(N)=O)C(=O)N[C@@H](CC1CCCCC1)C(=O)N[C@@H](CC(=O)O)C(=O)N[C@@H](CC(C)C)C(=O)N1CC(O)C[C@H]1C(=O)N[C@@H](CC(C)C)C(=O)O` (stereo partly drawn) [P33] (Ac-Q[Cha]DL[X5]L-OH), the “ΔG (kcal/mol)” value is given as -8.8 (± 0.2) kcal/mol and binding was put at a Kd of 369 nM. Besides, the kon (read-out: kon (M^-1.s^-1)) came to 44000 M⁻¹ s⁻¹.
As to `CC(=O)N[C@@H](CCC(N)=O)C(=O)N[C@@H](CC1CCCCC1)C(=O)N[C@@H](CC(=O)O)C(=O)N[C@@H](CC(C)C)C(=O)N1CCCC[C@H]1C(=O)N[C@@H](CC(C)C)C(=O)O` [P34] (Ac-Q[Cha]DL[Pip]L-OH), the “ΔG (kcal/mol)” value is given as -9.0 (± 0.1) kcal/mol and the Kd stood at 243 nM. In addition, the kon (read-out: kon (M^-1.s^-1)) worked out at 43000 M⁻¹ s⁻¹.
The molecule `CC(=O)N[C@@H](CCCNC(=N)N)C(=O)N[C@@H](CCC(N)=O)C(=O)N[C@@H](CC1CCCCC1)C(=O)N(C)[C@@H](CC(=O)O)C(=O)N[C@@H](CC(C)C)C(=O)N[C@@H](Cc1ccc(Cl)c(Cl)c1)C(=O)O` [P36] (Ac-RQ[Cha][NMeD]L[Phe(3,4-Cl2)]-OH) came in with a Kd of 278 nM. In addition, the kon (read-out: kon (M^-1 s^-1)) was determined as 76000 M⁻¹ s⁻¹.
As to `COc1ccc(NC(=O)N[C@@H](CCC(N)=O)C(=O)N[C@@H](CC2CCCCC2)C(=O)N(C)[C@@H](CC(=O)O)C(=O)N[C@@H](CC(C)C)C(=O)N[C@@H](Cc2ccc(Cl)c(Cl)c2)C(=O)O)cc1` [P39] ({NH(4-MeO-phenyl)-CO}-Q[Cha][NMeD]L[Phe(3,4-Cl2)]-OH), the Kd turned out to be 266 nM. Further, under “ITC at 25° C.”, the “ΔG (kcal mol^-1)” value is given as -9.0 (± 0.01) kcal mol^-1. Further, where the note is “read-out: kon (M^-1 s^-1)”, the kon turned out to be 42000 M⁻¹ s⁻¹.
